Experimental findings from patent US20230027295A1, “FXIA INHIBITORS AND PREPARATION METHOD THEREFOR AND PHARMACEUTICAL USE THEREOF” (Shenzhen Salubris Pharmaceuticals Co., Ltd., priority 2019, published 2023) are described below.

A short description of one data set: Rat pharmacokinetics. Further details: AUC: concentration or dose not given beside the values. In kind it is in vivo, SD rats. The note with it: for AUC / Cmax / Tmax / clearance / half-life / Vd: male, SD, plasma; for Vd: read-out: Vss.
Data set [1] in a line: Cynomolgus monkey pharmacokinetics. In kind it is in vivo. More on the design: AUC: concentration or dose not given beside the values. From the text: Example 53: Investigation of the Pharmacokinetic Characteristics of the Compounds of the Present Invention
SD rats: male, 180-250 g, purchased from Guangdong Medical Laboratory Animal Center. Cynomolgus monkey: male, 4-6 kg, purchased from Guangzhou Chunsheng Biological Research Institute Co., Ltd. Beagle dog: male, 8-12 kg, developed in Kanglong Chemical (Ningbo) New Drug Technology Co., Ltd.
Reagents: DMSO (dimethyl sulfoxide), PEG-400 (polyethylene glycol 400), normal brine, heparin, acetonitrile, formic acid, and propranolol (internal standard) are commercially available.
Instrumentation: Thermo Fisher Scientific LC-MS (U300 UPLC, TSQ […] ULTRA triple quadrupole mass spectrometer).
The compound was weighed and dissolved in DMSO-PEG-400-physiological brine (5:60:35, v/v/v) system. After the rats/monkeys were administered intravenously or by gavage, 200 μL of venous blood was collected at 5 min (not collected when administered by gavage), 15 min, 30 min, 1 h, 2 h, 4 h, 6 h, 8 h, and 24 h in heparinized EP tubes, centrifuged at 12000 rpm for 2 min, and the plasma was frozen at −80° C. for testing. A certain amount of the test substance was precisely weighed and dissolved in DMSO to 1 mg/mL, which was used as a stock solution. An appropriate amount of compound stock solution was accurately pipetted and diluted with acetonitrile to prepare a standard series of solutions. 20 μL of each of the above standard series solutions were accurately pipetted, added with 180 μL of blank plasma, vortexed and mixed to prepare plasma samples equivalent to plasma concentrations of 1, 3, 10, 30, 100, 300, 1000, 3000 and 5000 ng/mL. Two-sample analysis was performed for each concentration to establish a standard curve. 20 μL of plasma was taken out, added with 200 μL of internal standard propranolol (5 ng/mL) in acetonitrile, vortexed and mixed. It was centrifuged at 4000 rpm for 5 min, and the supernatant was collected for LC-MS analysis. LC-MS detection conditions were as follows:
Chromatographic column: Thermo Scientific […] GOLD C-18 UPLC column, 100*2.1 mm, 1.9 μm.
Mobile phase: water (0.1% formic acid)-acetonitrile for gradient elution according to the table below.
After blood drug concentrations being detected by LC-MS, WinNonlin 6.1 software was used to calculate pharmacokinetic parameters by non-compartmental model method.

Another data set addresses T1, CYP2B6 (Homo sapiens, UniProt P20813).
T1 construct: Liver microsomes (150-donor, Corning, Cat. 452117; Lot; 38292), NADPH; tissue Corning 452117; host or cells: liver microsomes, 150-donor pool
T1 sequence (P20813 1-491): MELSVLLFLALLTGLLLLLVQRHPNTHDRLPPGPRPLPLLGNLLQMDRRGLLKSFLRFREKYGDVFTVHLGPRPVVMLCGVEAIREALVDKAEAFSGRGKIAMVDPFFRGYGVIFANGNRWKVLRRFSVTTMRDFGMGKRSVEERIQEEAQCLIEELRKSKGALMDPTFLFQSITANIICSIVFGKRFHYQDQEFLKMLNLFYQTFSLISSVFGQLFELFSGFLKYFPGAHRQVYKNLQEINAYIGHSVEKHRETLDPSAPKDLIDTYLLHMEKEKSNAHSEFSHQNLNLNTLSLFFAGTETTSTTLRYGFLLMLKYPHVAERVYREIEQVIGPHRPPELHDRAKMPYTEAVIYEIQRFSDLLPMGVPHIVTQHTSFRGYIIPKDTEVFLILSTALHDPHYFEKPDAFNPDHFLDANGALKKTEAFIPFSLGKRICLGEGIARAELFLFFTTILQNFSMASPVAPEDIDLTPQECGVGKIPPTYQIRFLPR
The data set can be described thus: CYP enzyme inhibition in liver microsomes: CYP2B6. In kind it is in vitro ADME. The note with it: 0.2 mg/mL liver microsomes. The procedure:
Example 55: Investigation of CYP Enzyme Inhibition by the Compounds of the Present Invention Liver microsomes (150-donor, Corning, Cat. 452117; Lot. 38292), NADPH. A 0.2 mg/mL microsome system was prepared, each test substance and substrate were added, and the final concentration of the test substance was 50 μM. After pre-incubating for 8 min, 10 mM NADPH was added to start the reaction, and the final concentration of NADPH was 1 mM. After a period of incubation, an internal standard such as methanol was added to stop the reaction. The amount of substrate metabolites generated in each reaction well was detected. Data processing: Taking the metabolite generation in the blank well as 100%, the reduction of metabolite generation in each well of the test substance was calculated, and the inhibition rate was calculated.

For another data set, the target named is T2, CYP2C9 (Homo sapiens, UniProt P11712).
T2 construct: Liver microsomes (150-donor, Corning, Cat. 452117; Lot; 38292), NADPH; tissue Corning 452117; host or cells: liver microsomes, 150-donor pool
The data set is described as follows: CYP enzyme inhibition in liver microsomes: CYP2C9. In kind it is in vitro ADME. The note with it: 0.2 mg/mL liver microsomes. As to the method: Example 55: Investigation of CYP Enzyme Inhibition by the Compounds of the Present Invention Liver microsomes (150-donor, Corning, Cat. 452117; Lot. 38292), NADPH. […] After pre-incubating for 8 min, 10 mM NADPH was added to start the reaction, and the final concentration of NADPH was 1 mM. After a period of incubation, an internal standard such as methanol was added to stop the reaction. The amount of substrate metabolites generated in each reaction well was detected. […]
On the technique in general: Microsomes from liver hold many membrane-bound enzymes, among them those of drug oxidation.

T2 sequence (P11712 whole entry): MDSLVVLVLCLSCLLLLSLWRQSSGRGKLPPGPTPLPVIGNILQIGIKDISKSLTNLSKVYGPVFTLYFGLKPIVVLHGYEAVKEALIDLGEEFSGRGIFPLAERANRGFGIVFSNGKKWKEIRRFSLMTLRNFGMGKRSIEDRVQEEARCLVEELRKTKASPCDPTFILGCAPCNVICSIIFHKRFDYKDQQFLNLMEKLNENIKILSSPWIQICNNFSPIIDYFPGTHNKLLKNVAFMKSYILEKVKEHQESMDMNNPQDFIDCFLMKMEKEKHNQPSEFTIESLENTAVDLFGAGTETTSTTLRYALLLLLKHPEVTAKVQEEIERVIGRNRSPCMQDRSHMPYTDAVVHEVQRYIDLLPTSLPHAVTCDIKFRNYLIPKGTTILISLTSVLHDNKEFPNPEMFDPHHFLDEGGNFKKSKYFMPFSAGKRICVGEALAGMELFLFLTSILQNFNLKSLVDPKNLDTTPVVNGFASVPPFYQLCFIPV

The term AUC denotes the area under the concentration-time curve, a measure of exposure. What is called Cmax is the peak of the concentration-time curve. The term Tmax denotes the time from dosing to the highest level. What is called clearance is the rate of elimination divided by the concentration. The term half-life denotes the time in which the quantity being followed falls by half. In general, IC50 refers to the concentration at which inhibition is half-maximal. Regarding `COc1nn([C@@H](Cc2ccccc2)C(=O)Nc2ccc(C(=O)O)cc2)c(=O)cc1-c1cc(Cl)ccc1C(C)=O` [Example 19, (S)-4-(2-(4-(2-acetyl-5-chlorophenyl)-3-methoxy-6-oxopyridazin-1(6H)-yl)-3-phenylpropanamido)benzoic acid], the F in “Rat pharmacokinetics” (ig) was found to be 24.6%; in data set [1] (ig), 17.3%. Further, the area under the curve (AUC) was found to be 1020 ng·h/mL in the data set “Rat pharmacokinetics” (iv); 2510 ng·h/mL in the data set “Rat pharmacokinetics” (po, ig); 1430 ng·h/mL in data set [1] (male, plasma, iv); 2480 ng·h/mL in data set [1] (male, plasma, po, ig). Also, the Cmax in “Rat pharmacokinetics” (iv) turned out to be 2500 ng/mL; in “Rat pharmacokinetics” (po, ig), 768 ng/mL; in data set [1] (male, plasma, iv) it was 2690 ng/mL; in data set [1] (male, plasma, po, ig), 198 ng/mL. Further, the Tmax in “Rat pharmacokinetics” (iv) is 4.98 min; in the data set “Rat pharmacokinetics” (po, ig), 75 min; in data set [1] (male, plasma, iv) it was 0.083 h; in data set [1] (male, plasma, po, ig) it was 2.5 h. Also, the clearance was 16.4 mL/min/kg in “Rat pharmacokinetics” (iv) and 12 mL/min/kg in data set [1] (male, plasma, iv). Further, the half-life was 10.9 min in “Rat pharmacokinetics” (iv); 151 min in “Rat pharmacokinetics” (po, ig); 170 min in data set [1] (male, plasma, iv); 424 min in data set [1] (male, plasma, po, ig). For the same molecule, the Vd in “Rat pharmacokinetics” (iv) worked out at 0.269 L/kg; in data set [1] (male, plasma, iv, read-out: Vss) it was 0.65 L/kg. The half-maximal inhibitory concentration (IC50) against CYP2B6 and against CYP2C9 was greater than 50 µM in each case.

Regarding `CCC(=O)c1ccc(Cl)cc1-c1cc(=O)n([C@@H](Cc2ccccc2)C(=O)Nc2ccc(C(=O)O)cc2)nc1OC` [Example 32], the F in “Rat pharmacokinetics” (ig) stood at 5.4%. Further, in the data set “Rat pharmacokinetics” (iv), the AUC was 922 ng·h/mL, the Cmax is 2200 ng/mL, the time of peak concentration (Tmax) turned out to be 4.98 min and the clearance amounted to 23.5 mL/min/kg. For the same molecule, in the data set “Rat pharmacokinetics” (iv), the half-life is 99 min and the Vd came to 0.741 L/kg. In addition, in the data set “Rat pharmacokinetics” (po, ig), the exposure (AUC) was found to be 788 ng·h/mL, the highest level (Cmax) was 242 ng/mL, the Tmax is 20 min and the half-life was 226 min. On CYP2B6, this molecule gave a 50% inhibitory concentration (IC50) greater than 50 µM. At CYP2C9, the IC50 is roughly 50 µM.
